These results are taken from patent US12673041B2, “4-aminobut-2-enamide derivatives and salt thereof” (TAIHO PHARMACEUTICAL CO., LTD., priority 2019, dated 2026).

Where two headings read alike, the source gives them in different places. Where only a bound is given, the exact number is not on record here.

Test [1] concerns the target T1, GMPPNP-bound KRAS G12C protein and cRAF RAS-binding domain (cRAF-RBD) (Homo sapiens, UniProt P01116, G12C).
T1 construct: made in house; host or cells: E. coli
As to the kind of experiment: Inhibitory activity on interaction between KRAS G12C and cRAF (Alpha technology). In kind it is biochemical. As to conditions: GMPPNP-bound KRAS G12C incubated with compound at 25° C. for 1 hour, then cRAF-RBD, Alpha signal; read-out: IC50. In outline:
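GMPPNP-loaded His-KRAS G12C (aa 1-169) preincubated 1 h at 25 °C with compound (pH 7.5 Tris, 1 mM MgCl2, TCEP, Tween 20), then cRAF-RBD (aa 50-132) and Alpha reagents added for 1.5 h at RT. Inhibition scaled between DMSO (0%) and GDP-bound KRAS (100%); IC50 by curve fitting.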

The target of test [2] is T2, activated KRAS in NCI-H358 (Homo sapiens, UniProt P01116, G12C).
T2 construct: host or cells: NCI-H358
T2 sequence (P01116 1-188 isoform P01116-2 G12C): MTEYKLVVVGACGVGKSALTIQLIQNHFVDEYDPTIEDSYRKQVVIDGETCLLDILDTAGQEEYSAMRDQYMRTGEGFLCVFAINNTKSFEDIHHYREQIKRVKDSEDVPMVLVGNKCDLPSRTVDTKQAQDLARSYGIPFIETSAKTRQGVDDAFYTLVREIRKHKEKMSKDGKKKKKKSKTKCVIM
As to the kind of experiment: Amount of activated KRAS on KRAS-G12C mutant cell line NCI-H358 (Ras GTPase Chemi ELISA). The class given is cell-based. Conditions: for IC50: 1 hour with compound. On the procedure:
NCI-H358 [H358, H358] (ATCC® CRL5807™), which is a KRAS-G12C mutant human lung cancer cell line, and MIA PaCa-2 (ATCC® CRL-1420™), which is a KRAS-G12C mutant human pancreas cancer cell line, were suspended in a 10% fetal bovine serum-containing RPMI1640 medium (manufactured by Thermo Fischer SCIENTIFIC), respectively. The cell suspension was seeded into a cell culture plate and cultured in an incubator containing 5% CO2 gas at 37° C. for 1 day. The lyophilized recombinant human EGF protein (R&D systems, Cat #: 236-EG-200) was dissolved in PBS to make 0.5 mg/ml solution. […] Then, the compounds obtained in the “Preparation of Compounds” section were used as test compounds and were dissolved in DMSO, and each test compound was diluted with DMSO to give a concentration 200 times the final concentration. The solution of the test compound in DMSO was diluted with the medium used for suspending cells and added to each well of the cell-culture plate to give a DMSO final concentration of 0.5%, followed by culture in an incubator containing 5% CO2 gas at 37° C. for another 1 hour. The amount of activated KRAS after 1 hour culture in the presence of the compound was measured using Ras GTPase Chemi ELISA Kit (manufactured by Active Motif). The ratio of KRAS activity was calculated from the following equation, and the concentration of the test compound at which activity was suppressed to 50% (IC50 (μM)) was determined. […] The Ratio of KRAS activity to control (%)=(T−BG)/(C−BG)×100 • T: the emission intensity in a well into which a test compound was added. • C: the emission intensity in a well into which a test compound was not added. • BG: the emission intensity in a well into which neither a test compound nor a cell suspension was added.

The target of test [3] is T3, activated KRAS in MIA PaCa-2 (Homo sapiens, UniProt P01116, G12C).
T3 construct: host or cells: MIA PaCa-2
T3 sequence (P01116 1-188 isoform P01116-2 G12C): as above
As to the kind of experiment: Amount of activated KRAS on KRAS-G12C mutant cell line MIA PaCa-2 (Ras GTPase Chemi ELISA). In kind it is cell-based. Conditions: for IC50: 1 hour with compound. Here is the method: NCI-H358 [H358, H358] (ATCC® CRL5807™), which is a KRAS-G12C mutant human lung cancer cell line, and MIA PaCa-2 (ATCC® CRL-1420™), which is a KRAS-G12C mutant human pancreas cancer cell line, were suspended in a 10% fetal bovine serum-containing RPMI1640 medium (manufactured by Thermo Fischer SCIENTIFIC), respectively. The cell suspension was seeded into a cell culture plate and cultured in an incubator containing 5% CO2 gas at 37° C. for 1 day. The lyophilized recombinant human EGF protein (R&D systems, Cat #: 236-EG-200) was dissolved in PBS to make 0.5 mg/ml solution. The EGF solution in PBS was diluted by 0.4% with the medium used for suspending cells and added to each cell-culture plate to give an EGF final concentration of 100 ng/ml, followed by leaving to stand at ambient temperature for 5 minutes. Then, the compounds obtained in the “Preparation of Compounds” section were used as test compounds and were dissolved in DMSO, and each test compound was diluted with DMSO to give a concentration 200 times the final concentration. The solution of the test compound in DMSO was diluted with the medium used for suspending cells and added to each well of the cell-culture plate to give a DMSO final concentration of 0.5%, followed by culture in an incubator containing 5% CO2 gas at 37° C. for another 1 hour. The amount of activated KRAS after 1 hour culture in the presence of the compound was measured using Ras GTPase Chemi ELISA Kit (manufactured by Active Motif). The ratio of KRAS activity was calculated from the following equation, and the concentration of the test compound at which activity was suppressed to 50% (IC50 (μM)) was determined. […] The Ratio of KRAS activity to control (%)=(T−BG)/(C−BG)×100 • T: the emission intensity in a well into which a test compound was added. • C: the emission intensity in a well into which a test compound was not added. • BG: the emission intensity in a well into which neither a test compound nor a cell suspension was added.
Background: ELISA stands for enzyme-linked immunosorbent assay.

[4] abbreviates: NCI-H358, with EGF 100 ng/ml, read-out: IC50 NCI-H358 with EGF.
[5] abbreviates: NCI-H358, without EGF, read-out: IC50 NCI-H358 without EGF.
[6] abbreviates: MIA PaCa-2, with EGF 100 ng/ml, read-out: IC50 MIA PaCa-2 with EGF.
Setting [7] is: MIA PaCa-2, without EGF, read-out: IC50 MIA PaCa-2 without EGF.

T1 sequence (P01116 with tags, fused parts or gaps isoform P01116-2 G12C): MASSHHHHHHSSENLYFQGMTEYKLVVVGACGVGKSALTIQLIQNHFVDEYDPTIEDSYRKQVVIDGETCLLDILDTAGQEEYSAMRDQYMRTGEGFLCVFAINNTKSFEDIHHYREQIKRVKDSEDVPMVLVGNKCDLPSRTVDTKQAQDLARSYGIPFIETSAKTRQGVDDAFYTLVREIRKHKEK

In the case of `C=CC(=O)N1CCN(c2ncnc3c(F)c(-c4c(O)cccc4F)c(Cl)cc23)CC1` [ARS-1620, reference compound], the IC50 (commonly the concentration that gives 50% inhibition) in test [1] is above 67000 nM; in test [2] (setting [4]) it was 5400 nM; in test [2] (setting [5]), 1400 nM; in test [3] (setting [6]), 4200 nM; in test [3] (setting [7]), 650 nM. Moreover, the “KRAS inhibition activity under EGF treatment” value was “attenuated by EGF treatment” in test [2] (NCI-H358, EGF treatment) and “attenuated by EGF treatment” in test [3] (MIA PaCa-2, EGF treatment).
Regarding `CCc1nc2cc(-c3cccc(NC(=O)c4ccc(NC(=O)/C=C/CN[C@H]5CC[C@H](OC)CC5)c(C#N)c4)c3)c(C(F)(F)F)cc2n1C` [Example 1, 3-cyano-N-(3-(2-ethyl-1-methyl-6-(trifluoromethyl)-1H-benzo[d]imidazol-5-yl)phenyl)-4-((E)-4-(((1r, 4r)-4-methoxycyclohexyl)amino)but-2-enamido)benzamide], the IC50 in test [1] was 180 nM; in test [2] (setting [4]) it was 850 nM; in test [2] (setting [5]), 750 nM; in test [3] (setting [6]), 1000 nM; in test [3] (setting [7]), 780 nM.
The corresponding values for `CO[C@H]1CC[C@H](NC/C=C/C(=O)Nc2ccc(C(=O)c3ccc4c(-c5cc6ncn(C)c6cc5C)cccn34)cc2C#N)CC1` [Example 4, (E)-N-(2-cyano-4-(8-(1,6-dimethyl-1H-benzo[d]imidazol-5-yl)indolizine-3-carbonyl)phenyl)-4-(((1r,4r)-4-methoxycyclohexyl)amino)but-2-enamide] are 23 nM, 470 nM, 390 nM, 440 nM and 300 nM.
